Laboratory results reported in ChEMBL document CHEMBL5291721, “A preclinical secondary pharmacology resource illuminates target-adverse drug reaction associations of marketed drugs” (Nat Commun, 2023).

Legend:
[1] = target: Sodium-dependent dopamine transporter (Homo sapiens, UniProt Q01959)
D(3) dopamine receptor = D(3) dopamine receptor (Homo sapiens, UniProt P35462)
Thromboxane A2 receptor [2] = target: T1, Thromboxane A2 receptor (Homo sapiens, UniProt P21731); type: functional, cell-based
T1 sequence (P21731 whole entry): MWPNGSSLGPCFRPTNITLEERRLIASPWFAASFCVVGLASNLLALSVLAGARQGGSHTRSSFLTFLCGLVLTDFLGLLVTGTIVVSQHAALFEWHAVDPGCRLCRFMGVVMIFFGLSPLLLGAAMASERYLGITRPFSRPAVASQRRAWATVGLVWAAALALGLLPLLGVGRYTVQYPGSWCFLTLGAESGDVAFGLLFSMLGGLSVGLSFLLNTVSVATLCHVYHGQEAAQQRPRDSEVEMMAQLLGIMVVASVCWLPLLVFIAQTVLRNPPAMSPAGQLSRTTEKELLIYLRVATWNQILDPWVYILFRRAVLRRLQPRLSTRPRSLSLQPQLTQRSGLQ

[3] = target: Sodium-dependent noradrenaline transporter (Homo sapiens, UniProt P23975)
[4] = target: T2, Prostaglandin G/H synthase 1 (Homo sapiens, UniProt P23219); type: functional
[5] = target: Sodium-dependent serotonin transporter (Homo sapiens, UniProt P31645)
Chain of Sodium-dependent serotonin transporter (P31645 whole entry): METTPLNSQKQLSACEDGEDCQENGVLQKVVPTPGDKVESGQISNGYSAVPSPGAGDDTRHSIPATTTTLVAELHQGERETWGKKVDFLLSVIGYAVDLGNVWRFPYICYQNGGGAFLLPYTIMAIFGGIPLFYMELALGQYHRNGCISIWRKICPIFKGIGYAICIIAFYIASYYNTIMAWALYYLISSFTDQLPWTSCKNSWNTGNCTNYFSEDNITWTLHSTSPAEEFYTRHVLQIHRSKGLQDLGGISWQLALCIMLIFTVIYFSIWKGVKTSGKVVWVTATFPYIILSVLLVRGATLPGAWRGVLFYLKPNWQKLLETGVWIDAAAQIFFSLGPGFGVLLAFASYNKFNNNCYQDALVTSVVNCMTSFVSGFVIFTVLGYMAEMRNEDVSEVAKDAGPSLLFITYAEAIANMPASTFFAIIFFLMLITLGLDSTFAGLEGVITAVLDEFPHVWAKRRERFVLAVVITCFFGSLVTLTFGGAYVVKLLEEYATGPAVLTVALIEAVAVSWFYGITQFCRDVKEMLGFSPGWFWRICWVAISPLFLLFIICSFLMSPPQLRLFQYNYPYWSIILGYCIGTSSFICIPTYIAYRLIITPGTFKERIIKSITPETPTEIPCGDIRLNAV

Adenosine receptor A3 = target: T3, Adenosine receptor A3 (Homo sapiens, UniProt P0DMS8)
T3 sequence (P0DMS8 whole entry): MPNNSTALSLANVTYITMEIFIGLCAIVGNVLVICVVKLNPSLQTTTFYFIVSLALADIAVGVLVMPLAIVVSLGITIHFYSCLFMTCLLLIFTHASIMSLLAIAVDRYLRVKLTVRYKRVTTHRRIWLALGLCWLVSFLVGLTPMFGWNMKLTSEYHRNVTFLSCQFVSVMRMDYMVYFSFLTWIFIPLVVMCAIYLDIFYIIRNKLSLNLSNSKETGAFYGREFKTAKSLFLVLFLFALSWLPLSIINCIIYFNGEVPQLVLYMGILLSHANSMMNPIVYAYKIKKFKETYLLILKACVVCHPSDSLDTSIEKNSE

[6] = target: T4, Alpha-1A adrenergic receptor (Homo sapiens, UniProt P35348); type: functional, cell-based
T4 sequence (P35348 whole entry): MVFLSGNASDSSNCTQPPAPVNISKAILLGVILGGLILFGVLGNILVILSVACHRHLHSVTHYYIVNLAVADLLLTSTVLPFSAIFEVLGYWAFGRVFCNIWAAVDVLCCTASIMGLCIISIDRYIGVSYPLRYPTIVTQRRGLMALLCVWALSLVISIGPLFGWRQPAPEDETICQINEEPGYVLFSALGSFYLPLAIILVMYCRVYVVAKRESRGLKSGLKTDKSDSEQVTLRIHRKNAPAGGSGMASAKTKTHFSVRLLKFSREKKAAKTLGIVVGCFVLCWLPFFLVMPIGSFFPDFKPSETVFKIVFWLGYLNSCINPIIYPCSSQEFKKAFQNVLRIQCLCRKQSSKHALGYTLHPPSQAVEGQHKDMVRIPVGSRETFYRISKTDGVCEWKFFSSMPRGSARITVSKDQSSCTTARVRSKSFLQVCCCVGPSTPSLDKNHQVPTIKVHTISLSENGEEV

[7] = target: cGMP-inhibited 3',5'-cyclic phosphodiesterase 3A (Homo sapiens, UniProt Q14432); type: functional
Chain of cGMP-inhibited 3',5'-cyclic phosphodiesterase 3A (Q14432 whole entry): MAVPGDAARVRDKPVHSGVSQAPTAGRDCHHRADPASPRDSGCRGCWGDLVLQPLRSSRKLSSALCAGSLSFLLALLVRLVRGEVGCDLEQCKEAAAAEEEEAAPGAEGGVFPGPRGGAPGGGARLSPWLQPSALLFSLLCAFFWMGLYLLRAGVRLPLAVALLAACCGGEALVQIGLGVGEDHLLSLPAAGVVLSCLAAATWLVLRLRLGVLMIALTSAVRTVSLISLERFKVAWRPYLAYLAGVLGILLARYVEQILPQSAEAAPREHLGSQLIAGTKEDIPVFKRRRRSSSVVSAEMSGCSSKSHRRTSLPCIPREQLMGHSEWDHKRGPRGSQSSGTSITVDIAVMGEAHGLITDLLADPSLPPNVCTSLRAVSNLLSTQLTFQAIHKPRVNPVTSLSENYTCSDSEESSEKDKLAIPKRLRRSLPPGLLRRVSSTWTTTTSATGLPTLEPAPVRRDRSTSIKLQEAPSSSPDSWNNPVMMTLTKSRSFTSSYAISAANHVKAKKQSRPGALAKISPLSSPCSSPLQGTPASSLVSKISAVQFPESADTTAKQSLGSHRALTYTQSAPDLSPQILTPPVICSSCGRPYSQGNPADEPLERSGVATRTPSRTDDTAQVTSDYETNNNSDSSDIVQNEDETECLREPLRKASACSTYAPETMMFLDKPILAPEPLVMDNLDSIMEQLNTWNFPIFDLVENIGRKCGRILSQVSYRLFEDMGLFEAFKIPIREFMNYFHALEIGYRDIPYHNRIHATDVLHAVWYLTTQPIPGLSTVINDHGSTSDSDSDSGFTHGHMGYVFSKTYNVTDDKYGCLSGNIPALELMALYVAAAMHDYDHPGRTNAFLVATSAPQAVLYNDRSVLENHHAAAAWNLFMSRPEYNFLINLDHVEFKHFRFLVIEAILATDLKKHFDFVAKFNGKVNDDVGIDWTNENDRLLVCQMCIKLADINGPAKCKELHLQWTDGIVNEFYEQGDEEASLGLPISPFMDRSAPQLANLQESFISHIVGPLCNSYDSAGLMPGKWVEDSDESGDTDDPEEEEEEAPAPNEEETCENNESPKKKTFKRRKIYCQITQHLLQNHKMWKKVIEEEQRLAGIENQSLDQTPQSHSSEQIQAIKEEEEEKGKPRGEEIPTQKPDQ

[8] = target: 3',5'-cyclic-AMP phosphodiesterase 4A (Homo sapiens, UniProt P27815); type: functional
Chain of 3',5'-cyclic-AMP phosphodiesterase 4A (P27815 whole entry): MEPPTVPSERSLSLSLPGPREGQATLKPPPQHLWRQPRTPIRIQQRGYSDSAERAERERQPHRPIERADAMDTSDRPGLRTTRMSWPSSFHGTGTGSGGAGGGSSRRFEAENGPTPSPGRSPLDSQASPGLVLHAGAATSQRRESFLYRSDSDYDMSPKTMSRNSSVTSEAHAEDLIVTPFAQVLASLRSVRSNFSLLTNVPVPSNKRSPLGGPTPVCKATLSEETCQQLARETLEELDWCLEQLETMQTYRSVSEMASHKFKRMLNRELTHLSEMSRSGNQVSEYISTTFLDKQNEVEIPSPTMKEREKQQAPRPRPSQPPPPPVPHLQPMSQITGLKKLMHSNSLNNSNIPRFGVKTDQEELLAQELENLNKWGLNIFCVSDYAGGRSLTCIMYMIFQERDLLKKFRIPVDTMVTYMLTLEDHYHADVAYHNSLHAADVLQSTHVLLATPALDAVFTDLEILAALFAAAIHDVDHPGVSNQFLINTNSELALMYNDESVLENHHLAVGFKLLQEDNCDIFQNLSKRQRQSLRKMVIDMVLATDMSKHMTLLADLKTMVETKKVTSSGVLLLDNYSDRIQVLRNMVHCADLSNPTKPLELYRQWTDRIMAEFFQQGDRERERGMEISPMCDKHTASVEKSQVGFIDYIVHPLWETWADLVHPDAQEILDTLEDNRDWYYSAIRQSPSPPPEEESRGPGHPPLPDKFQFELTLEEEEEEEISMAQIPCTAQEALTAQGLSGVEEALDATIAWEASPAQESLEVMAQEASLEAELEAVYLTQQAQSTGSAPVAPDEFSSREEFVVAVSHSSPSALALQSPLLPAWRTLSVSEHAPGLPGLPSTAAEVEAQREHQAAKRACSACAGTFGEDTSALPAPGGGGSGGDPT

D(1A) dopamine receptor = D(1A) dopamine receptor (Homo sapiens, UniProt P21728)
Chain of D(1A) dopamine receptor (P21728 whole entry): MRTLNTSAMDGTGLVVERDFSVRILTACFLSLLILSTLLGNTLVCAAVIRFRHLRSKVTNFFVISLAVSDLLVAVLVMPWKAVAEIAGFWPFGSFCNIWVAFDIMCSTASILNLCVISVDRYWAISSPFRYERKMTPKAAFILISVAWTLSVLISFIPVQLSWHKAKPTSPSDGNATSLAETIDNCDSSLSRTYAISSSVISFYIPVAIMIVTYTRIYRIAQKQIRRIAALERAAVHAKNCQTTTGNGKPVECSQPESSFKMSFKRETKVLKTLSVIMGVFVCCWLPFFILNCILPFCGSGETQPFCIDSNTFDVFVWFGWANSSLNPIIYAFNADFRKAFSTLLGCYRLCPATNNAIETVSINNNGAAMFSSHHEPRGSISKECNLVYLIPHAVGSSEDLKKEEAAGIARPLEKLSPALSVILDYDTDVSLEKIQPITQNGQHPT

[9] = target: 5-hydroxytryptamine receptor 2B (Homo sapiens, UniProt P41595); type: functional, cell-based
Chain of 5-hydroxytryptamine receptor 2B (P41595 whole entry): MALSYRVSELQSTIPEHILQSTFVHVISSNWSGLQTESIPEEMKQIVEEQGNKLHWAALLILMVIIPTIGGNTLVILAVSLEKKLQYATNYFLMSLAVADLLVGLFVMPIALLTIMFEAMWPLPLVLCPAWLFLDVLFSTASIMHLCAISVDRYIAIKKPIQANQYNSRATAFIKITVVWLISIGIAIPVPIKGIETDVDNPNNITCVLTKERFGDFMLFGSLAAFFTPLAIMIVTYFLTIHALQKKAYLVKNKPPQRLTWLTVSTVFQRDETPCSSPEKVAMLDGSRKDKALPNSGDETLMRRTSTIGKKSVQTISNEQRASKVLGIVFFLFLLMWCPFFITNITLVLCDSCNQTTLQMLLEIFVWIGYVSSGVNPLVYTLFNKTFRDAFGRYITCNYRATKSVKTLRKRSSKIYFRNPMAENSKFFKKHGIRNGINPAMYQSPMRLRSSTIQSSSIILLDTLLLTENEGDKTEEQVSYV

[10] = target: T4, Alpha-1A adrenergic receptor; type: functional, cell-based; remark: listed apart in the source
Thromboxane A2 receptor [11] = target: T1, Thromboxane A2 receptor; type: functional, cell-based; remark: listed apart in the source
Mu-type opioid receptor = Mu-type opioid receptor (Homo sapiens, UniProt P35372)
Chain of Mu-type opioid receptor (P35372 whole entry): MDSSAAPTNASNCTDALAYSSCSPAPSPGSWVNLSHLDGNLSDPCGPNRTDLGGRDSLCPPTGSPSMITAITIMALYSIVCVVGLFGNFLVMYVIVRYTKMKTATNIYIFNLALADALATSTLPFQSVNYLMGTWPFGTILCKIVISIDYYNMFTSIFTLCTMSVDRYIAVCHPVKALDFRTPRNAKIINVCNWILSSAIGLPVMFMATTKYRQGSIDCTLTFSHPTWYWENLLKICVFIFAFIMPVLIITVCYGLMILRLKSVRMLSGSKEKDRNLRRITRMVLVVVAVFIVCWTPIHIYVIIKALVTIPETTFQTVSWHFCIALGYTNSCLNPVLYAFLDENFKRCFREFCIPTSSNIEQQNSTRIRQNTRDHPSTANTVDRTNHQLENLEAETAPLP

Histamine H3 receptor = Histamine H3 receptor (Homo sapiens, UniProt Q9Y5N1)
Chain of Histamine H3 receptor (Q9Y5N1 whole entry): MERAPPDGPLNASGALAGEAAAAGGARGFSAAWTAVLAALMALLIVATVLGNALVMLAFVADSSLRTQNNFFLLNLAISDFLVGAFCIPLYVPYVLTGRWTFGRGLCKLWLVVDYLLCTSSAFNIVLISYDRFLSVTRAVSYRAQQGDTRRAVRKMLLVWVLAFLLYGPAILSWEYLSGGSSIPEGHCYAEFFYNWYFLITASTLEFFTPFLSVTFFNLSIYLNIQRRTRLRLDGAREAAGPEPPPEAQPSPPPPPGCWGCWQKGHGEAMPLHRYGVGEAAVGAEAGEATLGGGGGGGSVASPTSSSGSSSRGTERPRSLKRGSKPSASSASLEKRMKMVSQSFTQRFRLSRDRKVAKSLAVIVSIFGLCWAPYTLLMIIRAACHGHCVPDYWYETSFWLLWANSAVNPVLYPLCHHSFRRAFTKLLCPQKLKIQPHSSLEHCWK

Prothrombin = Prothrombin (Homo sapiens, UniProt P00734); type: functional
[12] = target: T2, Prostaglandin G/H synthase 1; type: functional; remark: listed apart in the source
[13] = target: T5, Alpha-2A adrenergic receptor (Homo sapiens, UniProt P08913)
T5 sequence (P08913 whole entry): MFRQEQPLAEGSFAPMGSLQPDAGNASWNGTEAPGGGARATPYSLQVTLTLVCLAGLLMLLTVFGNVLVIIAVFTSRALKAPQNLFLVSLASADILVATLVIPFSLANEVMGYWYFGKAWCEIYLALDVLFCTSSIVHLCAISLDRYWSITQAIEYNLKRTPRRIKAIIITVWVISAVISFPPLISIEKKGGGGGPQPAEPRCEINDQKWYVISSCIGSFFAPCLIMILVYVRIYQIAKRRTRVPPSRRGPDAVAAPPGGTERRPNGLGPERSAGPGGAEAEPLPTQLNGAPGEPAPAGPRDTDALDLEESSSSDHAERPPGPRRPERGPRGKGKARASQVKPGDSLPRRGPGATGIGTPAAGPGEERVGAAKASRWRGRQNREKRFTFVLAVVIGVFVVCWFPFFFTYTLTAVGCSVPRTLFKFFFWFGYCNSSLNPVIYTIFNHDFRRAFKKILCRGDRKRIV

Acetylcholinesterase = Acetylcholinesterase (Homo sapiens, UniProt P22303); type: functional
Chain of Acetylcholinesterase (P22303 whole entry): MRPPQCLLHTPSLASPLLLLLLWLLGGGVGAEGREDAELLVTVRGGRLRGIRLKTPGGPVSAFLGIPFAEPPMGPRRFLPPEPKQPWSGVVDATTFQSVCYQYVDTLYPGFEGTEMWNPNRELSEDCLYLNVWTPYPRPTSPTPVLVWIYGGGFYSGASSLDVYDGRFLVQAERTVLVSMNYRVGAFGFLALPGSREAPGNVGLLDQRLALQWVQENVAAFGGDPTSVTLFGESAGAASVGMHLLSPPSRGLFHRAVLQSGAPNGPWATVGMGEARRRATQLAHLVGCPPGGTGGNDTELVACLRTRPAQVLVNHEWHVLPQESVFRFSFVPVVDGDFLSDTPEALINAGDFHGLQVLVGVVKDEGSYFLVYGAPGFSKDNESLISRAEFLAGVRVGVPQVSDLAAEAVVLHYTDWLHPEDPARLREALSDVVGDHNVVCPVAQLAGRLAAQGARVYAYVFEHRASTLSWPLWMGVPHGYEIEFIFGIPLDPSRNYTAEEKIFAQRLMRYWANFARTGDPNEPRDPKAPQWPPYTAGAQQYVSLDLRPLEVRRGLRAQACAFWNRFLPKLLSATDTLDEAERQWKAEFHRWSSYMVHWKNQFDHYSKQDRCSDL

[14] = target: Vascular endothelial growth factor receptor 2 (Homo sapiens, UniProt P35968); type: functional
Further: assay procedure not described here.

Row | SMILES | AC50 [1] | AC50 (D(3) dopamine receptor) | AC50 (Thromboxane A2 receptor [2]) | AC50 [3] | AC50 [4] | AC50 [5] | AC50 (Adenosine receptor A3) | AC50 [6] | AC50 [7] | AC50 [8] | AC50 (D(1A) dopamine receptor) | AC50 [9] | AC50 [10] | AC50 (Thromboxane A2 receptor [11]) | AC50 (Mu-type opioid receptor) | AC50 (Histamine H3 receptor) | AC50 (Prothrombin) | AC50 [12] | AC50 [13] | AC50 (Acetylcholinesterase) | also measured
1 | Cn1c(CCCC(=O)O)nc2cc(N(CCCl)CCCl)ccc21 [BENDAMUSTINE] | > 30 µM | > 30 µM | > 30 µM | > 30 µM | 5.8 µM | > 30 µM | > 30 µM | > 30 µM | > 30 µM | > 30 µM | > 30 µM | > 30 µM | > 30 µM | > 30 µM | > 30 µM | > 30 µM | > 30 µM | > 30 µM | > 30 µM | > 30 µM | –
2 | CC(C)(C)NCC(O)COc1ccccc1C#N (stereo unspecified) [BUNITROLOL] | > 30 µM | > 30 µM | > 30 µM | > 30 µM | > 30 µM | > 30 µM | – | > 30 µM | > 30 µM | > 30 µM | > 30 µM | > 30 µM | > 30 µM | > 30 µM | > 30 µM | > 30 µM | > 30 µM | > 30 µM | 27.1 µM | > 30 µM | –
3 | CC1(C)C[C@@H]1C(=O)N/C(=C\CCCCSC[C@H](N)C(=O)O)C(=O)O [CILASTATIN] | > 30 µM | > 30 µM | > 30 µM | > 30 µM | > 30 µM | > 30 µM | – | > 30 µM | > 30 µM | > 30 µM | > 30 µM | > 30 µM | > 30 µM | > 30 µM | > 30 µM | > 30 µM | > 30 µM | > 30 µM | > 30 µM | > 30 µM | –
4 | COc1c(OCCCN2CCOCC2)ccc2c1N=C(NC(=O)c1cnc(N)nc1)N1CCN=C21 [COPANLISIB] | > 30 µM | > 30 µM | > 30 µM | > 30 µM | > 30 µM | > 30 µM | – | > 30 µM | > 30 µM | > 30 µM | > 30 µM | > 30 µM | > 30 µM | > 30 µM | > 30 µM | > 30 µM | > 30 µM | > 30 µM | > 30 µM | > 30 µM | –
5 | CC(NCCC(c1ccccc1)c1ccccc1)c1ccccc1 (stereo unspecified) [FENDILINE] | 3.48 µM | 9.87 µM | – | 3.26 µM | > 30 µM | 7.94 µM | 26.8 µM | – | > 30 µM | > 30 µM | 21.7 µM | > 30 µM | 25.8 µM | 20.7 µM | 0.721 µM | > 30 µM | > 3 µM | > 30 µM | 5.89 µM | > 30 µM | AC50 [14]: > 30 µM
